In ChEMBL document CHEMBL3885861, “Open TG-GATES”:

Species on record: Rattus norvegicus
Assay: Open TG-GATES - Regimen: Daily Repeat
Format: toxicity, organism-based, Sprague-Dawley
Parameters: regimen Daily Repeat, gender Male, age 6 weeks
Settings: in vivo, po, route gavage; for APTT / Bas / Eos / Fbg / Hb / Ht / Lym / MCH / MCHC / MCV / Mono / Neu / PT / Plat / RBC / Ret / WBC: tissue Blood; for KIDNEY_L / KIDNEY_R / KIDNEY_TOTAL: tissue Kidney; for LIVER: tissue Liver; for A/G / ALP / ALT / AST / BUN / CRE / Ca / Cl / DBIL / GLC / IP / K / LDH / Na / PL / RALB / TBIL / TC / TG / TP / gamma-GTP: tissue Plasma
[1] = 0 mg/kg, 72 h, dose level Control, time 3 day
[2] = 0 mg/kg, […], dose level Control, time 7 day
[3] = 0 mg/kg, […], dose level Control, time 14 day
[4] = 0 mg/kg, […], dose level Control, time 28 day
[5] = 15 mg/kg, 72 h, dose level Low, time 3 day
[6] = 15 mg/kg, […], dose level Low, time 7 day
[7] = 15 mg/kg, […], dose level Low, time 14 day
[8] = 15 mg/kg, […], dose level Low, time 28 day

## CN(C)CCC=C1c2ccccc2CCc2ccccc21 [AMITRIPTYLINE]
[1]
  TERMINAL_BW: 226.6 g
  APTT: 14.9 s
  Bas: 0%
  Eos: 1.2%
  Fbg: 287.4 mg/dL
  Hb: 13 g/dL
  Ht: 39.9%
  Lym: 71.4%
  MCH: 21.3 pg
  MCHC: 32.7%
  MCV: 65.1 fL
  Mono: 3.4%
  Neu: 23.4%
  PT: 15.5 s
  Plat: 116.7 x10_4/uL
  RBC: 613.4 x10_4/ul
  Ret: 7.7%
  WBC: 71.8 x10_2/uL
  KIDNEY_L: 0.9 g
  KIDNEY_R: 0.9 g
  KIDNEY_TOTAL: 1.8 g
  LIVER: 10.7 g
  A/G: 0.8
  ALP: 1976.4 IU/L
  ALT: 54.6 IU/L
  AST: 74.2 IU/L
  BUN: 16.4 mg/dL
  CRE: 0.2 mg/dL
  Ca: 11.2 mg/dL
  Cl: 105.6 meq/L
  DBIL: 0.02 mg/dL
  GLC: 179.4 mg/dL
  IP: 7.9 mg/dL
  K: 4.1 meq/L
  LDH: 81 IU/L
  Na: 143.8 meq/L
  PL: 162.2 mg/dL
  RALB: 2.7 g/dL
  TBIL: 0.054 mg/dL
  TC: 83.2 mg/dL
  TG: 121.8 mg/dL
  TP: 5.9 g/dL
  gamma-GTP: 0.6 IU/L
[2]
  TERMINAL_BW: 259.7 g
  APTT: 16.5 s
  Bas: 0.6%
  Eos: 1%
  Fbg: 302.6 mg/dL
  Hb: 13.5 g/dL
  Ht: 40.7%
  Lym: 78.8%
  MCH: 20.8 pg
  MCHC: 33.1%
  MCV: 62.8 fL
  Mono: 2.8%
  Neu: 16.4%
  PT: 15.2 s
  Plat: 109.9 x10_4/uL
  RBC: 648.8 x10_4/ul
  Ret: 5.7%
  WBC: 86.3 x10_2/uL
  KIDNEY_L: 1 g
  KIDNEY_R: 1 g
  KIDNEY_TOTAL: 2 g
  LIVER: 11.9 g
  A/G: 0.8
  ALP: 1482.8 IU/L
  ALT: 40.8 IU/L
  AST: 64.2 IU/L
  BUN: 16 mg/dL
  CRE: 0.2 mg/dL
  Ca: 10.9 mg/dL
  Cl: 106.4 meq/L
  DBIL: 0.014 mg/dL
  GLC: 185.8 mg/dL
  IP: 7.5 mg/dL
  K: 3.9 meq/L
  LDH: 56.4 IU/L
  Na: 143.8 meq/L
  PL: 165.8 mg/dL
  RALB: 2.6 g/dL
  TBIL: 0.052 mg/dL
  TC: 81.2 mg/dL
  TG: 131.2 mg/dL
  TP: 5.8 g/dL
  gamma-GTP: 0.6 IU/L
[3]
  TERMINAL_BW: 318.6 g
  APTT: 17.3 s
  Bas: 0%
  Eos: 1%
  Fbg: 294.4 mg/dL
  Hb: 13.8 g/dL
  Ht: 41.5%
  Lym: 76.8%
  MCH: 20.9 pg
  MCHC: 33.3%
  MCV: 62.5 fL
  Mono: 2.2%
  Neu: 19%
  PT: 15.6 s
  Plat: 127.9 x10_4/uL
  RBC: 664.4 x10_4/ul
  Ret: 4.7%
  WBC: 94.5 x10_2/uL
  KIDNEY_L: 1.2 g
  KIDNEY_R: 1.2 g
  KIDNEY_TOTAL: 2.5 g
  LIVER: 14 g
  A/G: 0.8
  ALP: 1703.4 IU/L
  ALT: 41.8 IU/L
  AST: 68.6 IU/L
  BUN: 17.6 mg/dL
  CRE: 0.2 mg/dL
  Ca: 10.9 mg/dL
  Cl: 106 meq/L
  DBIL: 0.024 mg/dL
  GLC: 191.8 mg/dL
  IP: 6.3 mg/dL
  K: 4.3 meq/L
  LDH: 70.8 IU/L
  Na: 142.4 meq/L
  PL: 157 mg/dL
  RALB: 2.7 g/dL
  TBIL: 0.046 mg/dL
  TC: 71.6 mg/dL
  TG: 128.8 mg/dL
  TP: 6.1 g/dL
  gamma-GTP: 0.4 IU/L
[4]
  TERMINAL_BW: 406.1 g
  APTT: 18.5 s
  Bas: 0.2%
  Eos: 1%
  Fbg: 253 mg/dL
  Hb: 14.9 g/dL
  Ht: 43.8%
  Lym: 77.2%
  MCH: 19.6 pg
  MCHC: 33.9%
  MCV: 57.7 fL
  Mono: 2.6%
  Neu: 18.2%
  PT: 16.2 s
  Plat: 104.1 x10_4/uL
  RBC: 760.8 x10_4/ul
  Ret: 2.5%
  WBC: 120.5 x10_2/uL
  KIDNEY_L: 1.4 g
  KIDNEY_R: 1.4 g
  KIDNEY_TOTAL: 2.8 g
  LIVER: 17 g
  A/G: 0.8
  ALP: 1151.8 IU/L
  ALT: 47.2 IU/L
  AST: 83 IU/L
  BUN: 17.6 mg/dL
  CRE: 0.2 mg/dL
  Ca: 10.5 mg/dL
  Cl: 104.8 meq/L
  DBIL: 0.02 mg/dL
  GLC: 198.6 mg/dL
  IP: 6.3 mg/dL
  K: 3.7 meq/L
  LDH: 116.2 IU/L
  Na: 143 meq/L
  PL: 138 mg/dL
  RALB: 2.8 g/dL
  TBIL: 0.058 mg/dL
  TC: 62 mg/dL
  TG: 134.8 mg/dL
  TP: 6.2 g/dL
  gamma-GTP: 0.4 IU/L
[5]
  TERMINAL_BW: 224.1 g
  APTT: 16 s
  Bas: 0%
  Eos: 1%
  Fbg: 268.6 mg/dL
  Hb: 13.1 g/dL
  Ht: 40%
  Lym: 76.8%
  MCH: 20.3 pg
  MCHC: 32.7%
  MCV: 62 fL
  Mono: 3%
  Neu: 18.2%
  PT: 16 s
  Plat: 118.8 x10_4/uL
  RBC: 645.4 x10_4/ul
  Ret: 7.3%
  WBC: 97.8 x10_2/uL
  KIDNEY_L: 0.9 g
  KIDNEY_R: 0.9 g
  KIDNEY_TOTAL: 1.8 g
  LIVER: 10.4 g
  A/G: 0.8
  ALP: 1844.8 IU/L
  ALT: 55.8 IU/L
  AST: 74.6 IU/L
  BUN: 14.2 mg/dL
  CRE: 0.2 mg/dL
  Ca: 11 mg/dL
  Cl: 105.6 meq/L
  DBIL: 0.022 mg/dL
  GLC: 185.2 mg/dL
  IP: 7.7 mg/dL
  K: 4 meq/L
  LDH: 74.6 IU/L
  Na: 143.6 meq/L
  PL: 150.2 mg/dL
  RALB: 2.7 g/dL
  TBIL: 0.06 mg/dL
  TC: 76.2 mg/dL
  TG: 106 mg/dL
  TP: 5.8 g/dL
  gamma-GTP: 0.8 IU/L
[6]
  TERMINAL_BW: 265.9 g
  APTT: 15.5 s
  Bas: 0%
  Eos: 1.2%
  Fbg: 292 mg/dL
  Hb: 13.6 g/dL
  Ht: 41.4%
  Lym: 79.6%
  MCH: 20.6 pg
  MCHC: 32.7%
  MCV: 62.8 fL
  Mono: 3%
  Neu: 15.6%
  PT: 15.1 s
  Plat: 116.5 x10_4/uL
  RBC: 659 x10_4/ul
  Ret: 6.3%
  WBC: 93.6 x10_2/uL
  KIDNEY_L: 1.1 g
  KIDNEY_R: 1.1 g
  KIDNEY_TOTAL: 2.1 g
  LIVER: 12.7 g
  A/G: 0.8
  ALP: 1784.2 IU/L
  ALT: 44.8 IU/L
  AST: 70.6 IU/L
  BUN: 18.4 mg/dL
  CRE: 0.2 mg/dL
  Ca: 10.9 mg/dL
  Cl: 105.6 meq/L
  DBIL: 0.018 mg/dL
  GLC: 187.6 mg/dL
  IP: 7.7 mg/dL
  K: 4.1 meq/L
  LDH: 85.8 IU/L
  Na: 143.8 meq/L
  PL: 163.8 mg/dL
  RALB: 2.7 g/dL
  TBIL: 0.046 mg/dL
  TC: 78 mg/dL
  TG: 126 mg/dL
  TP: 5.9 g/dL
  gamma-GTP: 0.8 IU/L
[7]
  TERMINAL_BW: 314.4 g
  APTT: 17.3 s
  Bas: 0.4%
  Eos: 1%
  Fbg: 289.6 mg/dL
  Hb: 14 g/dL
  Ht: 42.2%
  Lym: 76%
  MCH: 20 pg
  MCHC: 33.2%
  MCV: 60.3 fL
  Mono: 2.2%
  Neu: 20%
  PT: 16 s
  Plat: 118.1 x10_4/uL
  RBC: 698.6 x10_4/ul
  Ret: 4.4%
  WBC: 115.2 x10_2/uL
  KIDNEY_L: 1.2 g
  KIDNEY_R: 1.2 g
  KIDNEY_TOTAL: 2.4 g
  LIVER: 13.8 g
  A/G: 0.8
  ALP: 1397.6 IU/L
  ALT: 44 IU/L
  AST: 69 IU/L
  BUN: 16.8 mg/dL
  CRE: 0.2 mg/dL
  Ca: 10.9 mg/dL
  Cl: 105.8 meq/L
  DBIL: 0.018 mg/dL
  GLC: 196 mg/dL
  IP: 6.8 mg/dL
  K: 4 meq/L
  LDH: 65 IU/L
  Na: 142.8 meq/L
  PL: 154 mg/dL
  RALB: 2.7 g/dL
  TBIL: 0.05 mg/dL
  TC: 70 mg/dL
  TG: 156.2 mg/dL
  TP: 6.1 g/dL
  gamma-GTP: 0.4 IU/L
[8]
  TERMINAL_BW: 400.5 g
  APTT: 21.5 s
  Bas: 0.2%
  Eos: 1.4%
  Fbg: 286.6 mg/dL
  Hb: 15.5 g/dL
  Ht: 45.4%
  Lym: 81.4%
  MCH: 19.3 pg
  MCHC: 34.1%
  MCV: 56.6 fL
  Mono: 2%
  Neu: 14.2%
  PT: 16.1 s
  Plat: 97.5 x10_4/uL
  RBC: 802.8 x10_4/ul
  Ret: 2.5%
  WBC: 104.9 x10_2/uL
  KIDNEY_L: 1.4 g
  KIDNEY_R: 1.4 g
  KIDNEY_TOTAL: 2.8 g
  LIVER: 16.1 g
  A/G: 0.8
  ALP: 1354.6 IU/L
  ALT: 36 IU/L
  AST: 61.2 IU/L
  BUN: 17.6 mg/dL
  CRE: 0.2 mg/dL
  Ca: 10.6 mg/dL
  Cl: 103.8 meq/L
  DBIL: 0.018 mg/dL
  GLC: 180.6 mg/dL
  IP: 6.2 mg/dL
  K: 3.8 meq/L
  LDH: 55.4 IU/L
  Na: 142.8 meq/L
  PL: 156.2 mg/dL
  RALB: 2.8 g/dL
  TBIL: 0.056 mg/dL
  TC: 77 mg/dL
  TG: 130.4 mg/dL
  TP: 6.3 g/dL
  gamma-GTP: 0 IU/L
